From patent publication US20260226074A1, “FUNGICIDAL COMPOSITIONS” (SYNGENTA CROP PROTECTION AG, priority 2023, published 2026)

Key:
Format in all cases: cell-based
Conditions in all cases: single compound
[1] = test system: Glomerella lagenarium Syn. Colletotrichum lagenarium; test: Glomerella lagenarium growth inhibition in nutrient broth (microtiter plate, photometric, 72 hrs, 620 nm)
Experimental: Glomerella lagenarium Syn. Colletotrichum lagenarium (Anthracnose of Cucurbits); Conidia of the fungus from cryogenic storage were directly mixed into nutrient broth (PDB potato dextrose broth). A DMSO solution of the test compounds was placed into a microtiter plate (96-well format) and the nutrient broth containing the fungal spores was added to it. The test plates were incubated at 24 C and the inhibition of growth was determined photometrically after 72 hrs at 620 nm.

Sclerotinia sclerotiorum = Sclerotinia sclerotiorum growth inhibition in nutrient broth (microtiter plate, photometric, 72 hrs, 620 nm)
Experimental: Sclerotinia sclerotiorum (Cottony Rot, White Mold, Etc.); Mycelial fragments of the fungus prepared from a fresh liquid culture were directly mixed into nutrient broth (PDB potato dextrose broth). A DMSO solution of the test compounds was placed into a microtiter plate (96-well format) and the nutrient broth containing the fungal spores was added to it. The test plates were incubated at 24 C and the inhibition of growth was determined photometrically after 72 hrs at 620 nm

Alternaria solani = Alternaria solani growth inhibition in nutrient broth (microtiter plate, photometric, 48 hrs)
Experimental: Alternaria solani (Early Blight Tomato/Potato): Conidia of the fungus from cryogenic storage were directly mixed into nutrient broth (PDB potato dextrose broth). A DMSO solution of the test compounds was placed into a microtiter plate (96-well format) and the nutrient broth containing the fungal spores was added to it. The test plates were incubated at 24 C and the inhibition of growth was determined photometrically after 48 hrs.

Septoria tritici = Septoria tritici growth inhibition in nutrient broth (microtiter plate, photometric, 72 hrs)
Experimental: Septoria tritici (Leaf Blotch): Conidia of the fungus from cryogenic storage were directly mixed into nutrient broth (PDB potato dextrose broth). A DMSO solution of the test compounds was placed into a microtiter plate (96-well format) and the nutrient broth containing the fungal spores was added to it. The test plates were incubated at 24 C and the inhibition of growth was determined photometrically after 72 hrs.

[2] = test system: Mycosphaerella arachidis Syn. Cercospora arachidicola; test: Mycosphaerella arachidis growth inhibition in nutrient broth (microtiter plate, photometric, 5-6 days, 620 nm)
Experimental: Mycosphaerella arachidis Syn. Cercospora arachidicola (Brown Leaf Spot of Peanut): Conidia of the fungus from cryogenic storage were directly mixed into nutrient broth (PDB potato dextrose broth). A DMSO solution of the test compounds was placed into a microtiter plate (96-well format) and the nutrient broth containing the fungal spores was added to it. The test plates were incubated at 24 C and the inhibition of growth was determined photometrically after 5-6 days at 620 nm

CCn1nccc1-c1c(Cl)cccc1Cc1cc2ccc(F)c(F)c2nc1C [3-[[3-chloro-2-(2-ethylpyrazol-3-yl)phenyl]methyl]-7,8-difluoro-2-methyl-quinoline]
Observed Activity ([1]; 0.074 ppm): 20%
Observed Activity ([1]; 0.22 ppm): 90%
Observed Activity ([1]; 0.74 ppm): 20%
Observed Activity (Sclerotinia sclerotiorum; 2 ppm): 0%
Observed Activity (Sclerotinia sclerotiorum; 6 ppm): 20%

CCCn1nccc1-c1c(F)cccc1Nc1nc2ccc(F)c(F)c2nc1C [5,6-difluoro-N-[3-fluoro-2-(2-propylpyrazol-3-yl)phenyl]-3-methyl-quinoxalin-2-amine]
Observed Activity ([1]; 0.66 ppm): 70%
Observed Activity (Sclerotinia sclerotiorum; 6.66 ppm): 0%
Observed Activity (Sclerotinia sclerotiorum; 20 ppm): 0%
Observed Activity (Alternaria solani; 0.25 ppm): 20%
Observed Activity (Alternaria solani; 0.74 ppm): 20%

Cc1ccc(CC2CON=C(c3cc(C)nnc3Oc3cccc(Cl)c3F)N2)c(Cl)c1 (stereo not shown) [Compound A-1.1, 3-[3-(3-chloro-2-fluoro-phenoxy)-6-methyl-pyridazin-4-yl]-5-[(2-chloro-4-methyl-phenyl)methyl]-5,6-dihydro-4H-1,2,4-oxadiazine]
Observed Activity (Septoria tritici; 0.01 ppm): 0%
Observed Activity (Septoria tritici; 0.1 ppm): 0%
Observed Activity ([1]; 0.01 ppm): 20%
Observed Activity ([1]; 0.1 ppm): 90%
Observed Activity (Alternaria solani; 0.01 ppm): 50%

Cc1cc(C2=NOCC(Cc3ccc(Br)cc3C)N2)c(Oc2cccc(Cl)c2F)nn1 (stereo not shown) [Compound A-1.3, 5-[(4-bromo-2-methyl-phenyl)methyl]-3-[3-(3-chloro-2-fluoro-phenoxy)-6-methyl-pyridazin-4-yl]-5,6-dihydro-4H-1,2,4-oxadiazine]
Observed Activity (Septoria tritici; 0.2 ppm): 0%
Observed Activity ([1]; 0.02 ppm): 20%
Observed Activity ([1]; 0.2 ppm): 90%
Observed Activity (Sclerotinia sclerotiorum; 0.02 ppm): 20%
Observed Activity (Sclerotinia sclerotiorum; 0.2 ppm): 70%
Observed Activity ([2]; 0.02 ppm): 0%
Observed Activity ([2]; 0.2 ppm): 0%

CC(Oc1ccc(Cl)cc1Cl)C(=O)NC(C)(C#N)C(C)C (stereo not shown) [Fenoxanil, fenoxanil]
Observed Activity (Sclerotinia sclerotiorum; 2.22 ppm): 0%
Observed Activity (Sclerotinia sclerotiorum; 6.66 ppm): 0%
Observed Activity (Sclerotinia sclerotiorum; 20 ppm): 0%

CCn1nccc1-c1ccccc1Nc1nc2ccc(F)c(F)c2nc1C [N-[2-(2-ethylpyrazol-3-yl)phenyl]-5,6-difluoro-3-methyl-quinoxalin-2-amine]
Observed Activity (Sclerotinia sclerotiorum; 6.66 ppm): 0%
Observed Activity (Sclerotinia sclerotiorum; 20 ppm): 0%
Observed Activity (Alternaria solani; 0.08 ppm): 20%
Observed Activity (Alternaria solani; 0.246 ppm): 20%
Observed Activity (Alternaria solani; 0.74 ppm): 20%

CCCn1nccc1-c1c(Cl)cccc1Nc1cc2ccc(F)c(F)c2nc1C [N-[3-chloro-2-(2-propylpyrazol-3-yl)phenyl]-7,8-difluoro-2-methyl-quinolin-3-amine]
Observed Activity (Septoria tritici; 0.008 ppm): 0%
Observed Activity (Septoria tritici; 0.025 ppm): 0%
Observed Activity (Septoria tritici; 0.074 ppm): 20%
Observed Activity (Septoria tritici; 0.22 ppm): 20%
Observed Activity (Sclerotinia sclerotiorum; 0.66 ppm): 0%
Observed Activity (Sclerotinia sclerotiorum; 2 ppm): 0%
Observed Activity (Alternaria solani; 0.008 ppm): 0%
Observed Activity (Alternaria solani; 0.025 ppm): 20%

Cn1nnnc1/C(=N\OCc1cccc(NC(=O)OC(C)(C)C)n1)c1ccccc1 [Picarbutrazox, picarbutrazox]
Observed Activity (Sclerotinia sclerotiorum; 6.66 ppm): 0%
Observed Activity (Sclerotinia sclerotiorum; 20 ppm): 0%

COC(=O)NCc1cc(/C(C)=N/OCc2cccc(C)n2)ccc1Cl [Pyribencarb, pyribencarb]
Observed Activity ([1]; 0.22 ppm): 20%
Observed Activity (Sclerotinia sclerotiorum; 0.008 ppm): 20%

Cc1ccc(N(SC(F)(Cl)Cl)S(=O)(=O)N(C)C)cc1 [Tolylfluanid, tolylfluanid]
Observed Activity ([1]; 0.025 ppm): 20%
Observed Activity ([1]; 0.074 ppm): 50%
Observed Activity (Sclerotinia sclerotiorum; 0.025 ppm): 0%
Observed Activity (Sclerotinia sclerotiorum; 0.074 ppm): 0%
Observed Activity (Sclerotinia sclerotiorum; 0.22 ppm): 90%
Observed Activity ([2]; 0.22 ppm): 20%
Observed Activity ([2]; 0.66 ppm): 90%
